According to patent publication US9044527B2, “Wound care products with peracid compositions” (CHD Bioscience, Inc., priority 2011, dated 2015):

How the values were obtained:
e. coli 25922 [1] = test: Kirby-Bauer growth inhibition (disk diffusion) assay; type: cell-based; settings: 10 μg gentamicin disc, 6 mm, 16-18 hours
Protocol: Kirby-Bauer growth inhibition (or disk diffusion susceptibility testing) is used to quantify the efficiency of antibiotics and/or to test the sensitivity of particular rapidly growing bacteria to an antibiotic.
A bacterial inoculum was prepared from log-phase cultures (ATCC e. coli 25922) to a standard density (approximately 1×10^8 CFU/ml, which is equivalent to a 0.5 McFarland turbidity). The inoculum was applied to a culture dish with Muller-Hinton nutrient agar.
Dissolvable thin film biocide preparations were prepared as Examples 1 or 3, but the spiked biocide was used at an original film-pour concentration of 20,000 ppm (recall that when the film-pour dries, it loses approximately 16-25× of its weight through solvent evaporation, and thus the final concentration of the biocide is much higher than the film-pour, although some is lost through evaporation as evidenced by the acetic acid smell during dry-down).
Samples of hydrogel (single FT cycle) were also used in some experiments where spiked biocide films were applied to the hydrogel surface and the bi-layer sample applied to the culture surface.
At the time of infection, test materials are applied to the surface of the agar. After a growth a 35-37° C. in air, for period of 16-18 hours, the diameter of the zone of inhibited bacteria growth can be visualized and measured with calipers. […]

e. coli 25922 [2] = settings: 10 μg gentamicin disc, 6 mm; cited from earlier work
[3] = system: methicillin resistant staphylococcus aureus (MRSA); test: MRSA streaked blood agar plate treated with PPA film discs (simulated MIC test); type: cell-based; settings: 6 mm film discs made with 100 ppm and 1000 ppm PPA compound, incubated overnight
From the text: This bulk film material illustrated in the drawings can be easily fit between layers of dressing or gauze and protected from the moisture in the bandage. […] To test efficacy and stability of the incorporated PPA compound, six millimeter discs were cut out of the PPA treated matrices and placed onto a methicillin resistant staphylococcus aureus (MRSA) streaked blood agar plate. […] This method simulated the well-known minimum inhibitory concentration (MIC) test. The blood agar plates were incubated overnight at optimal temperature and then observed for microbial kill.
The control film disc was the diameter of the grown of the 1000 ppm disc. The discs were placed on the blood agar plate and were dissolved by the moisture from the agar which allowed the PPA compound to migrate out of the film. […] Thus the 1000 ppm ratio of ppm concentration to the circle of kill diameter was greater than for the 100 ppm concentration to the circle diameter in millimeters.

| Compound | control zone inhibition diameter (e. coli 25922 [1]) | zone inhibition diameter, published quality-control data (e. coli 25922 [2]) | kill of MRSA (circle of kill diameter) [3] |
| --- | --- | --- | --- |
| gentamicin [Sensi-Disc] | agrees with published quality-control data | 19-26 mm |  |
| CC(=O)C(=O)OO [PPA compound, peroxy pyruvic acid] |  |  | in proportion to the PPA concentration in the disc |
